The results in this text go back to ChEMBL document CHEMBL4196107, “Antiangiogenic Activity and Chemical Derivatization of the Neurotoxic Acetogenin Annonacin Isolated from Asimina triloba” (J Nat Prod, 2018).

A word on the IC50: it is the concentration needed to halve the response being measured. What is called Papp is the rate of passage across a membrane or cell layer, normalised by area and donor concentration. A lower Papp goes with slow passage. By inhibition is commonly meant the relative decrease from the control value, in per cent.

Data set [1] relates to Thoracic aorta. Kind of data set: Antiangiogenic activity in Sprague-Dawley rat thoracic aorta ring assessed as inhibition of microvessels outgrowth after 5 days. In kind it is functional, tissue-based. The note with it: 120 h.
Data set [2] can be described thus: Effective permeability of the compound in PBS at 10 uM at pH 7.4 after 16 hrs by PAMPA-BBB assay. Background: The PAMPA barrier holds no transporters, so it reflects passive diffusion.
Data set [3] in a line: Effective permeability of the compound at pH 7.4 by PAMPA-BBB assay.
Data set [4] relates to Thoracic aorta. As to the kind of experiment: Antiangiogenic activity in Sprague-Dawley rat thoracic aorta ring assessed as inhibition of microvessels outgrowth at 50 uM after 5 days. It is filed as functional.
The test system of data set [5] is Thoracic aorta. Kind of data set: Antiangiogenic activity in Sprague-Dawley rat thoracic aorta ring assessed as inhibition of microvessels outgrowth at 1 uM after 5 days. In kind it is functional, tissue-based.

Activity calls are given as the source filed them. The calls are words filed in the database; no cut-off is given here.

In the case of `CCCCCCCCCCCC[C@@H](O)[C@H]1CC[C@H]([C@H](O)CCCC[C@H](O)CCCCC[C@@H](O)CC2=C[C@H](C)OC2=O)O1`, the 50% inhibitory concentration (IC50) in the data set with Thoracic aorta [1] was found to be 3000 nM. For the same molecule, in data set [2], the Papp at 16 h, 10 µM turned out to be 0.51 ×10⁻⁶ cm/s.
`CN(Cc1cnc2nc(N)nc(N)c2n1)c1ccc(C(=O)N[C@@H](CCC(=O)O)C(=O)O)cc1` [METHOTREXATE] had a Peff in data set [3] of 0.037 ×10⁻⁶ cm/s. The same molecule yielded a Papp at 16 h, 10 µM in data set [2] of 0.007 ×10⁻⁶ cm/s.
For `CCCCCCCCCCCC[C@@H](N=[N+]=[N-])[C@H]1CC[C@H]([C@@H](CCCC[C@@H](CCCCC[C@H](CC2=C[C@H](C)OC2=O)N=[N+]=[N-])N=[N+]=[N-])N=[N+]=[N-])O1`, the inhibition entry in the data set with Thoracic aorta [4] is “inactive”.
The same measure, in the same setting: to `CO[C@@H]1[C@H](OC(=O)NC(=O)CCl)CC[C@]2(CO2)[C@H]1[C@@]1(C)O[C@@H]1CC=C(C)C` belongs “Active”.
Turning to `CCCCCCCCCCCC[C@H](N=[N+]=[N-])[C@H]1CC[C@H]([C@H](CCCC[C@H](CCCCC[C@@H](CC2=C[C@H](C)OC2=O)N=[N+]=[N-])N=[N+]=[N-])N=[N+]=[N-])O1`, the inhibition at 50 µM with Thoracic aorta [4] (120 h) was 40%.
As to `CNC(=O)c1cc(Oc2ccc(NC(=O)Nc3ccc(Cl)c(C(F)(F)F)c3)cc2)ccn1`, the inhibition result with Thoracic aorta [5] was “Active”.
In data set [3], `CC(C)NCC(O)COc1cccc2ccccc12` (centres undefined) [PROPRANOLOL] registered an apparent permeability (Papp) of 12 ×10⁻⁶ cm/s.
